Experimental data as given in patent US20200163882A1, “Solid Pharmaceutical Compositions Of Androgen Receptor Antagonists” (Lek Pharmaceuticals d.d., priority 2014, published 2020).

Experiments:
[1] = cited from earlier work; for Solubility in water: water between pH 1 and 11
[2] = physiologic pH range; cited from earlier work
[3] = first clinical trials, similar daily doses; cited from earlier work
[4] = Solubility of Enzalutamide in surfactants; format: physicochemical
Method: In the first reference test formulation, 12 mg of Enzalutamide was completely dissolved in 0.27 ml of Labrasol. In second reference test formulations 12 mg of Enzalutamide is completely dissolved in 0.27 ml of Tween 80. In third reference test formulation, 12 mg of Enzalutamide is completely dissolved in 0.27 ml of Tween 80 and 0.15 mg of HPMC has been added. It should be noted that solubility of Enzalutamide is about the same in Tween and in Labrasol ([…] of Enzalutamide per 1 ml of either Tween 80 or Labrasol). The three test formulations were dissolved in 15 ml of pH 6.8 phosphate buffer and Enzalutamide concentration was measured at time points from 10 to 360 minutes.

## CNC(=O)c1ccc(N2C(=S)N(c3cnc(C#N)c(C(F)(F)F)c3)C(=O)C23CCC3)cc1F [ARN-509, 4-[7-[6-Cyano-5-(trifluoromethyl)pyridin-3-yl]-8-oxo-6-thioxo-5,7-diazaspiro[3.4]octan-5-yl]-2-fluoro-N-methylbenzamide]
[1]
  Solubility in N-methyl-2-pyrrolidone (NMP): soluble
  Solubility in absolute ethanol: sparingly soluble
  Solubility in acetone: soluble
  Solubility in water: practically insoluble
[2]
  Ionisation state: remain unionized
[3]
  Effectiveness versus Enzalutamide: more effective than Enzalutamide

## CNC(=O)c1ccc(N2C(=S)N(c3ccc(C#N)c(C(F)(F)F)c3)C(=O)C2(C)C)cc1F [Enzalutamide, 4-{3-[4-Cyano-3-(trifluoromethyl)phenyl]-5,5-dimethyl-4-oxo-2-thioxoimidazolidin-1-yl}-2-fluoro-N-methylbenzamide]
[4]; Labrasol
  Solubility of Enzalutamide in Labrasol: about 36 mg per 1 ml
[4]; Tween 80
  Solubility of Enzalutamide in Tween 80: about 36 mg per 1 ml
[1]
  Solubility in N-methyl-2-pyrrolidone (NMP): soluble
  Solubility in absolute ethanol: sparingly soluble
  Solubility in acetone: soluble
  Solubility in water: practically insoluble
[2]
  Ionisation state: remain unionized
